Where two headings read alike, the source gives them in different places.
Legend:
HT-29 cells = experiment: HT-29 cell proliferation (Cell Titer-Glo, 6 days); type: cell-based
Procedure: The inhibitory effect on the KIF18A target by the compounds of the present disclosure was evaluated by testing the inhibitory effect on proliferation of HT-29 cells by the compounds of the present disclosure.
HT-29 (ATCC, HTB-38) cells were cultured in McCoy's 5a complete medium (Gibco, 12330-031) containing 10% fetal bovine serum (Gibco, 10099-141C), 100 U penicillin and […] streptomycin (Gibco, 15140-122). The Promega kit Cell Titer-Glo (Promega: G7572) was used in this method for test. • 1. HT-29 cells were cultured in T75 cell flasks (Corning, 430641) and the medium was placed in a 37° C., 5% CO2 incubator. Cells were passaged when reaching a cell density of 70%-80%, approximately twice per week. • 2. To perform the experiment, the test compounds were dissolved in DMSO to prepare a 10 mM stock solution, and the test compounds were added to the 384-well cell test plate (Corning, 3765) at the predetermined concentration using ECHO. • 3. The cell culture flask was taken out, the medium was removed, and the cells were rinsed with PBS. Then 2 mL of trypsin (with 0.25% EDTA) was added, and the flask was placed in the incubator for digestion for 4 minutes. • 4. Digestion was stopped by adding 4 mL of complete medium and the cell suspension was transferred to a centrifuge tube and centrifuged at 1000 rpm for 4 minutes. • 5. The cells were resuspended in 6 mL of complete medium, followed by cell counting. The cell density was adjusted to 4,170 cells/mL, and the cells were added to a 384-well plate at 60 μL/well. • 6. The 384-well plate was centrifuged at 500 rpm for 1 minute, and then placed in a 37° C., 5% CO2 incubator for 6 days of cultivation. • 7. Six days later, the cell culture plate was equilibrated for 10 minutes at room temperature, 25 μL of Cell Titer-Glo was added to each well, and the mixture was shaken and mixed well and let stand for 5 minutes. The luminescence values for samples in various wells were read using a microplate reader in Luminescence mode.
The percentage of inhibition of cell proliferation by the test compound at each concentration was calculated by comparing with the values of the control group (0.3% DMSO). The IC50 values of the compounds were obtained by concentration-inhibition rate nonlinear regression analysis of the test compounds using GraphPad Prism 9.

OVCAR-3 cells = experiment: OVCAR-3 cell proliferation (Cell Titer-Glo, 10 days); type: cell-based, human
Procedure, shortened: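 IC50 was fitted by nonlinear regression of percent inhibition versus the 0.1% DMSO control. Luminescence was read with Cell Titer-Glo after 10 days of co-culture of logarithmic-phase cells (400/well) with compound at 0.12 nM–10 μM final, in medium with 20% fetal bovine serum and 0.01 mg/mL insulin.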

KIF18A = KIF18A (Homo sapiens (Human), UniProt Q8NI77); experiment: KIF18A ATPase activity under tubulin stimulation (ADP-Glo assay); type: biochemical; conditions: KIF18A 30 nM, ATP 150 μM, pig microtubules
PK study in ICR mice = type: in vivo, mouse; conditions: plasma, route and dose not given
Procedure: 6 ICR mice (male/female) were divided into two groups, administered orally and intravenously, respectively, with 3 mice/group. The mice were fasted for 10-14 hours prior to dosing with free access to water.
The test compound was weighed according to the administration dose, and prepared into a dose formulation at appropriate concentrations (for rats and mice, intravenous and oral administration at a volume of 5 mL/kg and 10 mL/kg, respectively), wherein the intravenous injection was a clear solution, and the oral preparation was a clear solution or a homogeneous suspension.
Animals were dosed by intravenous injection and oral gavage, and blood samples were collected at 0.033, 0.083, 0.25, 0.5, 1, 2, 4, 8, and 24 h after intravenous administration and 0.083, 0.25, 0.5, 1, 2, 4, 6, 8, and 24 h after oral administration. Whole blood was centrifuged at 6800 g for 6 min at 4° C. and the top plasma was stored in a −80° C. freezer for later analysis.
The DMSO stock solution of the test compound was diluted into a series of working solutions with a methanol or an acetonitrile solution, and added to a blank plasma matrix, and standard curves were generated and quality control samples were prepared. An appropriate volume of the plasma sample was taken and a suitable multiple of methanol or acetonitrile containing an internal standard was added for protein precipitation based on the response. After centrifugation of all samples at 18000 g for 10 min at 4° C., an appropriate amount of supernatant was taken for LC-MS/MS injection analysis.
Drug concentration-time curves in plasma were plotted according to test concentrations, and pharmacokinetic parameters were calculated using noncompartmental analysis by WinNonlin software, including: half-life (T½), area under the concentration-time curve from time zero to time t (AUCO-t), clearance (CL), volume of distribution at steady state (Vss) and bioavailability (F), with some of the test results shown in Table 4.

[1] = both sexes, mouse, read-out: AUC
[2] = both sexes, mouse, read-out: Cmax

Chain of KIF18A (Q8NI77 whole entry): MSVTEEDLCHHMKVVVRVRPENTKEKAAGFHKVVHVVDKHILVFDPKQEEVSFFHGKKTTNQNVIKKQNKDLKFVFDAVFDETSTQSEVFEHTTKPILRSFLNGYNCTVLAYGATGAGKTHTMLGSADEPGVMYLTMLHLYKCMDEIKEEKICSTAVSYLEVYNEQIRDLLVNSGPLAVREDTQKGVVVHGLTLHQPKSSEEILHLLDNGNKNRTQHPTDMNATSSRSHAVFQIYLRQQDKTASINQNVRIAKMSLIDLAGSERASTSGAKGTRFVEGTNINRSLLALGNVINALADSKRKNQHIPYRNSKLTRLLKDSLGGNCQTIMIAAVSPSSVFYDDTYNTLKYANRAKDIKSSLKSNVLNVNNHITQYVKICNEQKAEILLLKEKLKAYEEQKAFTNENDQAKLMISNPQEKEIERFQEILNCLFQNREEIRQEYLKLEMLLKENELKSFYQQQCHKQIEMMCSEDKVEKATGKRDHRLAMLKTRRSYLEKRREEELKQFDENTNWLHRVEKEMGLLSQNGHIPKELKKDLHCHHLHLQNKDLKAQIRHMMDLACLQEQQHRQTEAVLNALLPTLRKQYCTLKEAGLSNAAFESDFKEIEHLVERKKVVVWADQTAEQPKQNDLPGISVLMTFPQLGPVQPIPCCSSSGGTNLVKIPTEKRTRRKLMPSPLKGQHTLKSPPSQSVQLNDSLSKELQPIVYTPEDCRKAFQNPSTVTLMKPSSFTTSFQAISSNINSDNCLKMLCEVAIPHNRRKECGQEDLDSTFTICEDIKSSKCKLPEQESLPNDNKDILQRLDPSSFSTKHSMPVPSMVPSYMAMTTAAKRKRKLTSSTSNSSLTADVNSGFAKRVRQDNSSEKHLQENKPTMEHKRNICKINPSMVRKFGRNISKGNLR
Chain of KIF18A (P02550 whole entry partner): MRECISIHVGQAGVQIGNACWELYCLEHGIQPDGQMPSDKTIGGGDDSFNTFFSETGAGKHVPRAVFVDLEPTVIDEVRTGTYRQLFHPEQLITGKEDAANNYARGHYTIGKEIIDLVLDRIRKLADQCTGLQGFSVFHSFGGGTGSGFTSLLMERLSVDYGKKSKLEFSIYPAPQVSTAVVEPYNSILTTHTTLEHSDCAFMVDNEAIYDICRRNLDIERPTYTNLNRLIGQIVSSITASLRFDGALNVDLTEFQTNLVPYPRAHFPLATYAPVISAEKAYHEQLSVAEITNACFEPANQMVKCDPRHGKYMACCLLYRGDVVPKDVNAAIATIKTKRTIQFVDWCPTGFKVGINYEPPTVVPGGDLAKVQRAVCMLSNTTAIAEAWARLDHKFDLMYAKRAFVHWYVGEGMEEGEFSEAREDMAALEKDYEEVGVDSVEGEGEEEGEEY
Chain of KIF18A (P02554 whole entry partner): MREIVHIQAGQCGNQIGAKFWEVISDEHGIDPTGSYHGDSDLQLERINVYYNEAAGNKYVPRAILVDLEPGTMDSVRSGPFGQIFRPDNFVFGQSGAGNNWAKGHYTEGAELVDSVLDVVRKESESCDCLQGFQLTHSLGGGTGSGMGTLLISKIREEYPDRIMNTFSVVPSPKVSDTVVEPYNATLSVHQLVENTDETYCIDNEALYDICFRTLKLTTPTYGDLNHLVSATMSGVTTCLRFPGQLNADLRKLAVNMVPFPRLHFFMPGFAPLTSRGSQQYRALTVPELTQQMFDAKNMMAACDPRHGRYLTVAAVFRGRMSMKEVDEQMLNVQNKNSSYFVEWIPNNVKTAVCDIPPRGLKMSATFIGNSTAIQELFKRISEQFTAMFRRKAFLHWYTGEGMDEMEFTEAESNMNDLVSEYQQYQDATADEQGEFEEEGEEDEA

IC50 (HT-29 cells; Homo sapiens, HT-29, 144 h) [nM]	IC50 (OVCAR-3 cells; Homo sapiens, OVCAR-3, 240 h) [nM]	IC50 (KIF18A) [nM]	IC50 (HT-29 cells) [nM]	IC50 (OVCAR-3 cells) [nM]	AUC (PK study in ICR mice) [ng·h/mL]	Cmax (PK study in ICR mice) [ng/mL]	Compound	AUC (PK study in ICR mice; [1]) [ng·h/mL]	Cmax (PK study in ICR mice; [2]) [ng/mL]
–	–	–	≤ 200	≤ 50	–	–	[2H]C([2H])([2H])OC1c2cc3c(NC(=O)c4ccc(NS(=O)(=O)CCO)cc4N4CCC5(CC4)CC5)cccc3n2CCC1(F)F (single isomer, unassigned) [Compound 385-P2, N-(8,8-difluoro-9-(methoxy-d3)-6,7,8,9-tetrahydropyridino[1,2-a]indol-1-yl)-4-((2-hydroxyethyl)sulfonamido)-2-(6-azaspiro[2.5]oct-6-yl)benzamide]	–	–
–	–	≤ 50	≤ 200	50 to 500	–	–	[2H]C([2H])([2H])OC1c2cc3c(NC(=O)c4ccc(NS(=O)(=O)CCO)cc4N4CCC(=C(F)F)CC4)cccc3n2CCC1(F)F (single isomer, unassigned) [Compound 386-P2, N-(8,8-difluoro-9-(methoxy-d3)-6,7,8,9-tetrahydropyridino[1,2-a]indol-1-yl)-2-(4-(difluoromethylene)piperidin-1-yl)-4-((2-hydroxyethyl)sulfonamido)benzamide]	–	–
≤ 200	–	50 to 500	–	≤ 50	–	–	[2H]C([2H])([2H])OC1c2cc3c(NC(=O)c4ccc(NS(=O)(=O)CCO)cc4N4CCC5(CC4)CC5)cccc3n2CCC1(F)F (centres unmarked) [Compound 385, N-(8,8-difluoro-9-(methoxy-d3)-6,7,8,9-tetrahydropyridino[1,2-a]indol-1-yl)-4-((2-hydroxyethyl)sulfonamido)-2-(6-azaspiro[2.5]oct-6-yl)benzamide]	–	–
200 to 1000	–	50 to 500	–	50 to 500	–	–	[2H]C([2H])([2H])OC1c2cc3c(NC(=O)c4ccc(NS(=O)(=O)CCO)cc4N4CCC(=C(F)F)CC4)cccc3n2CCC1(F)F (centres unmarked) [Compound 386, N-(8,8-difluoro-9-(methoxy-d3)-6,7,8,9-tetrahydropyridino[1,2-a]indol-1-yl)-2-(4-(difluoromethylene)piperidin-1-yl)-4-((2-hydroxyethyl)sulfonamido)benzamide]	–	–
≤ 200	≤ 50	50 to 500	–	–	–	–	CC1(C)OCCn2c1cc1c(NC(=O)c3ccc(NS(=O)(=O)CCO)cc3N3CCC4(CC3)CC4)cccc12 [Compound 396, N-(1,1-dimethyl-3,4-dihydro-1H-[1,4]oxazino[4,3-a]indol-9-yl)-4-((2-hydroxyethyl)sulfonamido)-2-(6-azaspiro[2.5]octan-6-yl)benzamide]	–	–
–	≤ 50	≤ 50	–	–	–	–	O=C(Nc1cccc2c1nc1n2CCOC1)c1ccc(NS(=O)(=O)CCO)cc1N1CCC(=C(F)F)CC1 [Example 322, 2-(4-(difluoromethylene)piperidin-1-yl)-N-(3,4-dihydro-1H-benzo[4,5]imidazo[2,1-c][1,4]oxazin-9-yl)-4-((2-hydroxyethyl)sulfonamido)benzamide]	12400	2420
–	–	≤ 50	–	≤ 50	4113	762	O=C(Nc1ccc(F)c2c1nc1n2CCOC1)c1ccc(NS(=O)(=O)CCO)cc1N1CCC(=C(F)F)CC1 [Example 323, 2-(4-(difluoromethylene)piperidin-1-yl)-N-(6-fluoro-3,4-dihydro-1H-benzo[4,5]imidazo[2,1-c][1,4]oxazin-9-yl)-4-((2-hydroxyethyl)sulfonamide)benzamide]	–	–
–	–	≤ 50	200 to 1000	≤ 50	–	–	O=C(Nc1ccnc2c1cc1n2CCC(F)(F)C1)c1ccc(NS(=O)(=O)CCO)cc1N1CCC(=C(F)F)CC1 [Example 376]	–	–
–	–	≤ 50	≤ 200	≤ 50	–	–	O=C(Nc1ccnc2c1cc1n2CCC(F)(F)C1)c1ccc(NS(=O)(=O)CCO)cc1N1CCC2(CC1)CC2 [Example 380, N-(7,7-difluoro-6,7,8,9-tetrahydropyridin[3,2-b]indolizin-4-yl)-4-((2-hydroxyethyl)sulfonamido)-2-(6-azaspiro[2.5]oct-6-yl)benzamide]	–	–
–	≤ 50	50 to 500	–	–	–	–	O=C(Nc1ccc(OC(F)F)c2c1cc1n2CCC(F)(F)C1)c1ccc(NS(=O)(=O)CCO)cc1N1CCC2(CC1)CC2 [Example 583]	43300	4410
–	50 to 500	50 to 500	–	–	–	–	O=C(Nc1ccc(OC(F)(F)F)c2c1cc1n2CCC(F)(F)C1)c1ccc(NS(=O)(=O)CCO)cc1N1CCC(=C(F)F)CC1 [Example 585]	–	–
–	50 to 500	50 to 500	–	–	–	–	O=C(Nc1ccc(OC(F)F)c2c1cc1n2CCC(F)(F)C1)c1ccc(NS(=O)(=O)CCO)cc1N1CCC(=C(F)F)CC1 [Example 586]	–	–

Compound	IC50 (HT-29 cells; Homo sapiens, HT-29, 144 h) [nM]	IC50 (OVCAR-3 cells; Homo sapiens, OVCAR-3, 240 h) [nM]	IC50 (KIF18A) [nM]	IC50 (HT-29 cells) [nM]	IC50 (OVCAR-3 cells) [nM]	AUC (PK study in ICR mice) [ng·h/mL]	Cmax (PK study in ICR mice) [ng/mL]	AUC (PK study in ICR mice; [1]) [ng·h/mL]	Cmax (PK study in ICR mice; [2]) [ng/mL]
O=C(Nc1cccc2c1cc1n2CCC(F)(F)C1O)c1ccc(NS(=O)(=O)CCO)cc1N1CCC2(CC1)CC2 (single isomer, unassigned) [Compound 384-P1, N-(8,8-difluoro-9-hydroxy-6,7,8,9-tetrahydropyridino[1,2-a]indol-1-yl)-4-((2-hydroxyethyl)sulfonamido)-2-(6-azaspiro[2.5]oct-6-yl)benzamide]	≤ 200	≤ 50	≤ 50	–	–	–	–	1290	366
O=C(Nc1cccc2c1cc1n2CCC(F)(F)C1O)c1ccc(NS(=O)(=O)CCO)cc1N1CCC2(CC1)CC2 (single isomer, unassigned) [Compound 384-P2, N-(8,8-difluoro-9-hydroxy-6,7,8,9-tetrahydropyridino[1,2-a]indol-1-yl)-4-((2-hydroxyethyl)sulfonamido)-2-(6-azaspiro[2.5]oct-6-yl)benzamide]	–	–	50 to 500	≤ 200	≤ 50	–	–	–	–
CC1=CCCn2c1cc1c(NC(=O)c3ccc(NS(=O)(=O)CCO)cc3N3CCC4(CC3)CC4)cccc12 [Compound 410, 4-(2-hydroxyethyl)sulfonamido-N-(9-methyl-6,7-dihydropyridino[1,2-a]indol-1-yl)-2-(6-azaspiro[2.5]octan-6-yl)benzamide]	≤ 200	≤ 50	50 to 500	–	–	–	–	16400	2790
CNc1cc(NS(=O)(=O)CCO)cc(N2CCC3(CC2)CC3)c1C(=O)Nc1ccc(OC)c(N2CCC(F)(F)CC2)n1 [Example 491, N-(6-(4,4-difluoropiperidin-1-yl)-5-methoxypyridin-2-yl)-4-((2-hydroxyethyl)sulfonamido)-2-(methylamino)-6-(6-azaspiro[2.5]oct-6-yl)benzamide]	–	≤ 50	50 to 500	–	–	–	–	24800	2300
CCOc1ccc(NC(=O)c2ccc(NS(=O)(=O)CCO)cc2N2CCC3(CC2)CC3)c2cc3n(c12)CC(C)(C)OC3 [Example 535, N-(6-ethoxy-3,3-dimethyl-3,4-dihydro-1H-[1,4]oxazino[4,3-a]indol-9-yl)-4-((2-hydroxyethyl)sulfonamido)-2-(6-azaspiro[2.5]octan-6-yl)benzamide]	–	≤ 50	50 to 500	–	–	–	–	101000	8370
N-(1-(cyclopropylmethyl)-1H-indol-4-yl)-4-methoxy-2-(6-azaspiro[2.5]octan-6-yl)benzamide [Example 127]	–	–	≤ 50	–	≤ 50	–	–	–	–

— US20260070887A1 (Shenzhen Zhongge Biological Technology Co., Ltd., priority 2022, published 2026)
